Reference: patent publication US20210380556A1, “HETEROARYLAZOLE COMPOUND AND PEST CONTROL AGENT” (Nippon Soda Co., Ltd., priority 2018, published 2021)

How the values were obtained:
Mythimna separata = assay: Test Example 1: efficacy on Mythimna separata (treated artificial feed); assay type: in vivo; settings: 1 μl of emulsion (I) (5% active ingredient) in 0.8 g artificial feed; second instar larvae; 25° C.; fifth day
Description: (§1) 5 parts of the heteroaryl azole compound of the present invention, 93.6 parts of dimethylformamide, and 1.4 parts of polyoxyethylene alkyl aryl ether were mixed and dissolved to prepare emulsion (I) containing 5% of the active ingredient.
For a control, 98.5 parts of dimethylformamide and 1.5 parts of polyoxyethylene alkyl aryl ether were mixed and dissolved to prepare emulsion (II).
(§2) Insecticidal rate (%)=(The number of dead insects/The number of tested insects)×100
0.8 g of commercially available artificial feed (Insecta LFS, manufactured by Nosan Corp.) and 1 μl of the emulsion (I) were well mixed to obtain test feed.
A plastic test container (capacity: 1.4 ml) was packed with 0.2 g of the test feed per treatment plot. Then, two second instar larvae of Mythimna separata were inoculated to each treatment plot. A plastic lid was put on the test container so as to prevent escape of the second instar larvae of Mythimna separata. The container was placed in a thermostat chamber of 25° C. On the fifth day, the insecticidal rate and the food intake were examined. The test was conducted in duplicate.
The insecticidal rate and the food intake of a control plot were examined in the same way as in Test Example 1 except that the emulsion (I) was changed to the emulsion (II).

Plutella xylostella = assay: Test Example 3: efficacy on Plutella xylostella (cabbage leaf dip); assay type: in vivo; settings: foliar, 72 h, cabbage leaves dipped 30 seconds, second instar larvae, after 3 days, read-out: insecticidal rate
Protocol: as §1, §2
The emulsion (I) was diluted with water such that the concentration of the compound of the present invention was 125 ppm. Cabbage leaves were dipped in the dilution for 30 seconds. The resulting cabbage leaves were placed in a petri dish. Five second instar larvae of Plutella xylostella were released thereto. The petri dish was placed in a thermostat chamber having a temperature of 25° C. and a humidity of 60%. Life and death were determined after 3 days from the release of the insects, and the insecticidal rate was calculated. The test was conducted in duplicate.

Musca domestica = assay: Test Example 9: efficacy on Musca domestica (treated sugar cube); assay type: in vivo; settings: 100 ppm per g of a cube of sugar; female adults; 25° C.; after hours (number not given)
Protocol: as §2
The compound of the present invention was diluted with acetone and added dropwise at 100 ppm per g of a cube of sugar. The cube of sugar was placed in a plastic cup. Ten female adults of Musca domestica were released, and a lid was put on the plastic cup. The plastic cup was stored at 25° C. Life and death were determined after hours from the release of the insects, and the insecticidal rate was calculated. The test was conducted in duplicate.

| SMILES | insecticidal rate or food intake as compared with the control plot (Mythimna separata) | pest or weed control at 125 ppm (Plutella xylostella) [%] | also measured |
| --- | --- | --- | --- |
| CCS(=O)(=O)c1cnc(-n2cnc(N)n2)nc1-c1ncc(C(F)(F)C(F)(F)C(F)(F)C(F)(F)F)n1C | – | – | melting point: 219 to 221 °C |
| CCS(=O)(=O)c1cc(Br)cnc1-c1nnc(C(F)(F)C(F)(F)C(F)(F)C(F)(F)F)n1C | – | – | melting point: 74 to 76 °C |
| CCS(=O)(=O)c1cnc(-c2ncn(C)n2)nc1-c1ncc(C(F)(F)C(F)(F)C(F)(F)F)n1C [a-1] | insecticidal rate of 100% for Mythimna separata or a food intake of 10% or less | ≥ 80 | – |
| CCS(=O)(=O)c1cnc(-c2ncn(C)n2)nc1-c1ncc(C(F)(F)C(F)(F)C(F)(F)C(F)(F)F)n1C [a-2, 5-(ethylsulfonyl)-2-(1-methyl-1H-1,2,4-triazol-3-yl)-4-(1-methyl-5-(perfluorobutyl)-1H-imidazol-2-yl)pyrimidine] | insecticidal rate of 100% for Mythimna separata or a food intake of 10% or less | ≥ 80 | – |
| CCS(=O)(=O)c1cnc(-c2ncccn2)nc1-c1ncc(C(F)(F)C(F)(F)C(F)(F)C(F)(F)F)n1C [a-4] | – | ≥ 80 | – |
| CCS(=O)(=O)c1cnc(-n2ncnc2N)nc1-c1ncc(C(F)(F)C(F)(F)C(F)(F)C(F)(F)F)n1C [a-6] | insecticidal rate of 100% for Mythimna separata or a food intake of 10% or less | ≥ 80 | – |
| CCS(=O)(=O)c1cnc(-c2ncnn2C)nc1-c1ncc(C(F)(F)C(F)(F)C(F)(F)C(F)(F)F)n1C [a-10] | – | ≥ 80 | – |
| CCS(=O)(=O)c1cc(-c2ncccn2)cnc1-c1ncc(C(F)(F)C(F)(F)C(F)(F)C(F)(F)F)n1C [b-4] | insecticidal rate of 100% for Mythimna separata or a food intake of 10% or less | – | insecticidal rate (Musca domestica): ≥ 80% |
| CCS(=O)(=O)c1cc(-c2ncccn2)cnc1-c1ncc(C(F)(F)C(F)(F)C(F)(F)F)n1C [b-19, 2-(5-(ethylsulfonyl)-6-(1-methyl-5-(perfluoropropyl)-1H-imidazol-2-yl)pyridin-3-yl)pyrimidine] | – | ≥ 80 | – |
| CCS(=O)(=O)c1cc(-c2ncccc2F)cnc1-c1ncc(C(F)(F)C(F)(F)C(F)(F)C(F)(F)F)n1C [b-61] | insecticidal rate of 100% for Mythimna separata or a food intake of 10% or less | – | – |
| CCS(=O)(=O)c1cc(-c2ncccc2Cl)cnc1-c1ncc(C(F)(F)C(F)(F)C(F)(F)F)n1C [b-62] | insecticidal rate of 100% for Mythimna separata or a food intake of 10% or less | – | – |
| CCS(=O)(=O)c1cc(C2CC2)cnc1-c1ncc(C(F)C(F)(F)C(F)(F)C(F)(F)C(F)(F)F)n1C (centres unmarked) [b-63] | insecticidal rate of 100% for Mythimna separata or a food intake of 10% or less | – | – |
| CCS(=O)(=O)c1cc(-c2ncccn2)cnc1-c1ncc(C(F)C(F)(F)C(F)(F)C(F)(F)C(F)(F)F)n1C (centres unmarked) [b-64] | insecticidal rate of 100% for Mythimna separata or a food intake of 10% or less | – | – |
| CCS(=O)(=O)c1cc(-c2ccccn2)cnc1-c1ncc(C(F)C(F)(F)C(F)(F)C(F)(F)C(F)(F)F)n1C (centres unmarked) [b-66] | insecticidal rate of 100% for Mythimna separata or a food intake of 10% or less | – | – |
| CCS(=O)(=O)c1cc(OCC(F)(F)C(F)(F)F)cnc1-c1ncc(C(F)C(F)(C(F)(F)F)C(F)(F)F)n1C (centres unmarked) [b-68] | insecticidal rate of 100% for Mythimna separata or a food intake of 10% or less | – | – |
| CCS(=O)(=O)c1cc(OC(C)(C)C(F)(F)F)cnc1-c1ncc(C(F)C(F)(C(F)(F)F)C(F)(F)F)n1C (centres unmarked) [b-69] | insecticidal rate of 100% for Mythimna separata or a food intake of 10% or less | – | – |
| CCS(=O)(=O)c1cc(/C=N/OCC(F)(F)C(F)(F)F)cnc1-c1ncc(C(F)C(F)(F)C(F)(F)F)n1C (centres unmarked) [c-1] | insecticidal rate of 100% for Mythimna separata or a food intake of 10% or less | ≥ 80 | – |
| CCS(=O)(=O)c1cc(C2CC2)cnc1-c1nnc(C(F)(F)C(F)(F)C(F)(F)C(F)(F)F)n1C [c-4] | – | ≥ 80 | – |
| CCS(=O)(=O)c1cc(-c2ncccn2)cnc1-c1nnc(C(F)(F)C(F)(F)C(F)(F)C(F)(F)F)n1C [c-5] | insecticidal rate of 100% for Mythimna separata or a food intake of 10% or less | ≥ 80 | – |
| CCS(=O)(=O)c1cc(C2CC2)c[n+]([O-])c1-c1ncc(C(F)C(F)(C(F)(F)F)C(F)(F)F)n1C (centres unmarked) [c-8] | insecticidal rate of 100% for Mythimna separata or a food intake of 10% or less | – | – |
